Data taken from patent US20220249441A1, “Homodimeric Tobramycin Adjuvant Repurposes Novobiocin as an Effective Antibacterial Agent Against Gram-Negative Bacteria” (priority 2019, published 2022).
Where two headings read alike, the source gives them in different places.

How the values were obtained:
[1] = test system: P. aeruginosa; experiment: Checkerboard assay (antibiotic + adjuvant combination MIC); type: cell-based, Pseudomonas aeruginosa; settings: for MIC of Novobiocin + adjuvant (7.1 μM): PMBN or 1 at 7.1 μM
Experimental: (§1) Antimicrobial Susceptibility Assay. The in vitro antimicrobial activity of all compounds/antibiotics against a panel of bacteria was evaluated by microbroth dilution method in accordance with the Clinical and Laboratory Standards Institute (CLSI) guidelines (using ATCC strains as quality control strains) (54). Overnight grown bacterial cultures were diluted in saline to achieve a 0.5 McFarland turbidity, followed by 1:50 dilution in Mueller-Hinton broth (MHB) for inoculation to a final concentration of approximately 5×10^5 CFU/mL. […] The lowest concentration that prevented the visible growth of bacteria was defined as the MIC for each antimicrobial agent. The broth with or without bacterial cells was used as positive or negative control, respectively.
(§2) Checkerboard Assay. Combination studies with different antibiotics were performed in 96-well plates as previously described (19). Briefly, the antibiotic of interest was serially diluted in MHB along the abscissa while the adjuvant (tobramycin homodimer) was serially diluted in MHB along the ordinate. This creates a 10×7 matrices wherein each well consists of a combination of different antibiotic and adjuvant concentrations. Overnight grown bacterial cultures were diluted in saline to achieve a 0.5 McFarland turbidity, followed by 1:50 dilution in Mueller-Hinton broth (MHB) for inoculation to a final concentration of approximately 5×10^5 CFU/mL. […] MIC was recorded as wells with the lowest concentration of drugs with no bacterial growth. The fractional inhibitory concentration (FIC) for each antibiotic was calculated by dividing the MIC of the antibiotic in the presence of adjuvant by the MIC of the antibiotic alone. Similarly, the FIC of adjuvant was calculated by dividing the MIC of the adjuvant in the presence of antibiotic by the MIC of the adjuvant alone. FIC index is the sum of both FICs. FIC indices of ≤0.5 were deemed synergistic; >0.5-4, no interaction; and >4, antagonistic.

[2] = test system: P. aeruginosa PAO1 and efflux deficient mutants, MDR/XDR isolates; experiment: microbe, parasite or virus in culture; type: cell-based, Pseudomonas aeruginosa
Experimental: Antimicrobial Susceptibility Assay. The in vitro antimicrobial activity of all compounds/antibiotics against a panel of bacteria was evaluated by microbroth dilution method in accordance with the Clinical and Laboratory Standards Institute (CLSI) guidelines (using ATCC strains as quality control strains) (54). […] The broth with or without bacterial cells was used as positive or negative control, respectively.

[3] = test system: A. baumannii; experiment: Checkerboard assay (antibiotic + adjuvant combination MIC); type: cell-based, Acinetobacter baumannii
Experimental: as §1, §2

[4] = test system: E. coli; experiment: as above; type: cell-based, Escherichia coli; settings: PMBN or 1 at 7.1 μM
Experimental: as §1, §2

[5] = test system: K. pneumoniae; experiment: as above; type: cell-based, Klebsiella pneumoniae; settings: KP 113254; PMBN or 1 at 7.1 μM
Experimental: as §1, §2

[6] = test system: E. cloacae; experiment: as above; type: cell-based, Enterobacter cloacae; settings: EC 118568; PMBN or 1 at 7.1 μM
Experimental: as §1, §2

[7] = P. aeruginosa PAO1, compound at 8 μM
[8] = PA 262-101856, compound at 8 μM
[9] = PA 264-104354, compound at 8 μM
[10] = PA O200 (efflux-deficient), compound at 8 μM
[11] = PA O750 (efflux-deficient), compound at 8 μM

NC[C@H]1O[C@H](O[C@H]2[C@H](OCCCCc3cn(CCCCO[C@@H]4[C@@H](O)[C@H](N)C[C@H](N)[C@H]4O[C@H]4O[C@H](CN)[C@@H](O)C[C@H]4N)nn3)[C@@H](O)[C@H](N)C[C@@H]2N)[C@H](N)C[C@@H]1O [Compound 26, Nebramine Homodimer]
0.13 µg/mL: MIC of CAZ in the presence of compound [1, 11]
0.25 µg/mL: MIC of CAZ in the presence of compound [1, 10] | MIC of ATM in the presence of compound [1, 11]
16 µg/mL: MIC of ATM in the presence of compound ([1]; PA 260-97103, compound at 8 μM) | MIC of CAZ in the presence of compound ([1]; PA 260-97103, compound at 8 μM) | MIC of IPM in the presence of compound ([1]; PA 260-97103, compound at 8 μM) | MIC of ATM in the presence of compound [1, 8] | MIC of CAZ in the presence of compound [1, 8] | MIC of IPM in the presence of compound ([1]; PA 86052, compound at 8 μM) | MIC of ATM in the presence of compound ([1]; PA 88949, compound at 8 μM) | MIC of ATM in the presence of compound ([1]; PA 108590, compound at 8 μM) | MIC of ATM in the presence of compound ([1]; PA 109084, compound at 8 μM) | MIC of IPM in the presence of compound ([1]; PA 109084, compound at 8 μM) | MIC of ATM in the presence of compound ([1]; PA 114228, compound at 8 μM)
2 µg/mL: MIC of Imipenem + compound [1, 7] | MIC of ATM in the presence of compound ([1]; PA 91433, compound at 8 μM) | MIC of IPM in the presence of compound [1, 11] | MIC of IPM in the presence of compound ([1]; PAO1, compound at 8 μM)
32 µg/mL: MIC of CAZ in the presence of compound [1, 9] | MIC of ATM in the presence of compound ([1]; PA 86052, compound at 8 μM) | MIC of IPM in the presence of compound ([1]; PA 88949, compound at 8 μM) | MIC of CAZ in the presence of compound ([1]; PA 101243, compound at 8 μM) | MIC of ATM in the presence of compound ([1]; PA 107092, compound at 8 μM) | MIC of IPM in the presence of compound ([1]; PA 107092, compound at 8 μM) | MIC of CAZ in the presence of compound ([1]; PA 108590, compound at 8 μM) | MIC of CAZ in the presence of compound ([1]; PA 109084, compound at 8 μM)
0.06 µg/mL: MIC of ATM in the presence of compound [1, 10]
8 µg/mL: MIC of Piperacillin + compound [1, 7] | MIC of ATM in the presence of compound ([1]; PA 259-96918, compound at 8 μM) | MIC of ATM in the presence of compound [1, 9] | MIC of IPM in the presence of compound [1, 9] | MIC of IPM in the presence of compound ([1]; PA 91433, compound at 8 μM) | MIC of ATM in the presence of compound ([1]; PA 101243, compound at 8 μM) | MIC of IPM in the presence of compound ([1]; PA 101243, compound at 8 μM) | MIC of IPM in the presence of compound ([1]; PA 108590, compound at 8 μM)
64 µg/mL: MIC of IPM in the presence of compound ([1]; PA 259-96918, compound at 8 μM) | MIC of CAZ in the presence of compound ([1]; PA 86052, compound at 8 μM) | MIC of CAZ in the presence of compound ([1]; PA 88949, compound at 8 μM)
0.5 µg/mL: MIC of Ceftazidime + compound [1, 7] | MIC of CAZ in the presence of compound ([1]; PA 91433, compound at 8 μM) | MIC of CAZ in the presence of compound ([1]; PAO1, compound at 8 μM)
>128 µg/mL: MIC ([2]; PAO1 (wild-type)) | MIC ([2]; PAO200 (first column so headed))
128 µg/mL: MIC of CAZ in the presence of compound [1] | MIC ([2]; PAO200 (second column so headed))
4 µg/mL: MIC of IPM in the presence of compound [1, 8] | MIC of ATM in the presence of compound ([1]; PA 100036, compound at 8 μM) | MIC of CAZ in the presence of compound ([1]; PA 100036, compound at 8 μM) | MIC of IPM in the presence of compound ([1]; PA 100036, compound at 8 μM) | MIC of ATM in the presence of compound ([1]; PA 101885, compound at 8 μM) | MIC of IPM in the presence of compound ([1]; PA 101885, compound at 8 μM) | MIC of IPM in the presence of compound ([1]; PA 114228, compound at 8 μM)
1 µg/mL: MIC of Aztreonam + compound [1, 7] | MIC of CAZ in the presence of compound ([1]; PA 101885, compound at 8 μM) | MIC of CAZ in the presence of compound ([1]; PA 114228, compound at 8 μM) | MIC of IPM in the presence of compound [1, 10] | MIC of ATM in the presence of compound ([1]; PAO1, compound at 8 μM)

polymyxin B nonapeptide [PMBN, reference compound]
128 µg/mL: MIC of Novobiocin + adjuvant (7.1 μM) ([1]; PA 114228)
512 µg/mL: MIC of Novobiocin + adjuvant (7.1 μM) [6]
did not potentiate: potentiation of novobiocin ([3]; colistin-resistant mutant B of A. baumannii ATCC 17978)
1 µg/mL: MIC of Novobiocin + adjuvant (7.1 μM) ([3]; AB 92247, PMBN or 1 at 7.1 μM)
8 µg/mL: MIC of Novobiocin + adjuvant (7.1 μM) ([1]; PA 101243)
64 µg/mL: MIC of Novobiocin + adjuvant (7.1 μM) [5]
4 µg/mL: MIC of Novobiocin + adjuvant (7.1 μM) ([1]; PA 91433) | MIC of Novobiocin + adjuvant (7.1 μM) ([1]; PAO1) | MIC of Novobiocin + adjuvant (7.1 μM) ([4]; E. coli 94393)
32 µg/mL: MIC of Novobiocin + adjuvant (7.1 μM) ([4]; E. coli 94474)
